Literature values, collected in paper PMC11966747, “Next Generation Risk Assessment of Acute Neurotoxicity from Organophosphate Exposures Using the In Vitro–In Silico Derived Dietary Comparator Ratio” (Environmental Science & Technology, 2025).
Like-named read-outs stand apart in the source and are kept apart here.

Biological target: erythrocyte AChE (Homo sapiens, UniProt P22303)
Settings: cited from earlier work; for reported or expected adverse health outcome: human, ref Table S2
[1] = 1714 mg/kg BW (120 g) acute oral, 13 males and 2 females, ref Moon et al. 2015

Sequence of erythrocyte AChE (P22303 32-617 isoform P22303-2 limits assumed): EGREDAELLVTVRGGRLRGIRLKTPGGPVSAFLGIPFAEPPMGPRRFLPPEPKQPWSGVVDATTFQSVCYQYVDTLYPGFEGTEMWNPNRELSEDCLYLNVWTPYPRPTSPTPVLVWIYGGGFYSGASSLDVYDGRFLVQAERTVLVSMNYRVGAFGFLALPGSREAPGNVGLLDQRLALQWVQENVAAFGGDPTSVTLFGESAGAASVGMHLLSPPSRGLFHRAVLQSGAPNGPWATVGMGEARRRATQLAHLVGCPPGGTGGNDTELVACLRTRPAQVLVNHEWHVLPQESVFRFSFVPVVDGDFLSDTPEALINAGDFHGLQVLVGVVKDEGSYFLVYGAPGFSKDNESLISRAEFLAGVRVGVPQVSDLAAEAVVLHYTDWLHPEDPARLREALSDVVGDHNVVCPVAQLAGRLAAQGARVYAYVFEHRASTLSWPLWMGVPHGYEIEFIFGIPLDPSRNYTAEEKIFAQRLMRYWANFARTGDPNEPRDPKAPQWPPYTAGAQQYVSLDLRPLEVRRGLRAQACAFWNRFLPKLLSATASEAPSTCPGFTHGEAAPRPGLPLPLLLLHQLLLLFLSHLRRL

Structure (SMILES): COP(=S)(OC)Oc1ccc([N+](=O)[O-])c(C)c1 [fenitrothion]
- Reported erythrocyte AChE activity/inhibition (0.042 mg/kg BW single oral, 3 volunteers, ref Nosáľ and Hladká. 1968): No significant
- Reported concomitant effects (signs and symptoms) (0.06 mg/kg BW single oral, 3 male volunteers, ref Meaklim et al. 2003): No significant symptoms
- Reported erythrocyte AChE activity/inhibition (0.083 mg/kg BW single oral, 9 volunteers, ref Nosáľ and Hladká. 1968): No significant
- Reported erythrocyte AChE activity/inhibition (0.09 mg/kg BW, first dose of repeated exposure study, 8 male and 4 female volunteers, ref Meaklim et al. 2003): No significant erythrocyte AChE
- Reported erythrocyte AChE activity/inhibition (0.17 mg/kg BW single oral, 5 volunteers, ref Nosáľ and Hladká. 1968): No significant erythrocyte AChE
- Reported concomitant effects (signs and symptoms) (0.18 mg/kg BW single oral, 3 male volunteers, ref Meaklim et al. 2003): No significant symptoms
- Reported erythrocyte AChE activity/inhibition (0.18 mg/kg BW, first dose of repeated exposure study, 8 male and 4 female volunteers, ref Meaklim et al. 2003): No significant erythrocyte AChE
- Reported erythrocyte AChE activity/inhibition (0.25 mg/kg BW single oral, 2 volunteers, ref Nosáľ and Hladká. 1968): No significant erythrocyte AChE
- Reported erythrocyte AChE activity/inhibition (0.33 mg/kg BW single oral, 5 volunteers, ref Nosáľ and Hladká. 1968): No significant erythrocyte AChE
- Reported concomitant effects (signs and symptoms) (0.36 mg/kg BW single oral, 3 male volunteers, ref Meaklim et al. 2003): No symptoms or adverse effects
- Reported concomitant effects (signs and symptoms) (36 mg/kg BW (2.5 g) acute oral, person, ref Kojima et al. 1989): Toxic symptoms occurred
- Reported concomitant effects (signs and symptoms) (71 mg/kg BW (5 g) acute oral, person, ref Yoshida and Kuroki. 2010 (original data of Koyama et al. 2006)): Toxic symptoms occurred
- Reported concomitant effects (signs and symptoms) (143 mg/kg BW (10 g) acute oral, person, ref Yoshida and Kuroki. 2010 (original data of Koyama et al. 2006)): Toxic symptoms occurred
- Reported concomitant effects (signs and symptoms) (214 mg/kg BW (15 g) acute oral, person five, ref Yoshida and Kuroki. 2010 (original data of Koyama et al. 2006)): Toxic symptoms occurred
- Reported concomitant effects (signs and symptoms) (214 mg/kg BW (15 g) acute oral, person three, ref Yoshida and Kuroki. 2010 (original data of Koyama et al. 2006)): Toxic symptoms occurred
- Reported concomitant effects (signs and symptoms) (286 mg/kg BW (20 g) acute oral, person, ref Sakamoto et al. 1984): Toxic symptoms occurred
- Reported concomitant effects (signs and symptoms) (357 mg/kg BW (25 g) acute oral, person eleven, ref Yoshida and Kuroki. 2010 (original data of Koyama et al. 2006)): Toxic symptoms occurred
- Reported concomitant effects (signs and symptoms) (357 mg/kg BW (25 g) acute oral, person twelve, ref Yoshida and Kuroki. 2010 (original data of Koyama et al. 2006)): Toxic symptoms occurred
- Reported concomitant effects (signs and symptoms) (357 mg/kg BW (25 g) acute oral, person, ref Martinez-Chuecos et al. 1992): Toxic symptoms occurred
- Reported concomitant effects (signs and symptoms) (429 mg/kg BW (30 g) acute oral, person, ref Yoshida et al. 1987): Toxic symptoms occurred
- Reported concomitant effects (signs and symptoms) (429 mg/kg BW (30.0 ± 19.7 g) acute oral, 4 males and 6 females, ref Inoue et al. 2008): Toxic symptoms occurred
- Reported concomitant effects (signs and symptoms) (500 mg/kg BW (35 g) acute oral, person fourteen, ref Yoshida and Kuroki. 2010 (original data of Koyama et al. 2006)): Toxic symptoms occurred
- Reported concomitant effects (signs and symptoms) (500 mg/kg BW (35 g) acute oral, person two, ref Yoshida and Kuroki. 2010 (original data of Koyama et al. 2006)): Toxic symptoms occurred
- Reported concomitant effects (signs and symptoms) (536 mg/kg BW (37.5 g) acute oral, person, ref Yoshida and Kuroki. 2010 (original data of Koyama et al. 2006)): Toxic symptoms occurred
- Reported concomitant effects (signs and symptoms) (571 mg/kg BW (40 g) acute oral, person, ref Park and Choi. 2017): Toxic symptoms occurred
- Reported concomitant effects (signs and symptoms) (714 mg/kg BW (50 g) acute oral, person eight, ref Yoshida and Kuroki. 2010 (original data of Koyama et al. 2006)): Toxic symptoms occurred
- Reported concomitant effects (signs and symptoms) (714 mg/kg BW (50 g) acute oral, person four, ref Yoshida and Kuroki. 2010 (original data of Koyama et al. 2006)): Toxic symptoms occurred
- Reported concomitant effects (signs and symptoms) (714 mg/kg BW (50 g) acute oral, person nine, ref Yoshida and Kuroki. 2010 (original data of Koyama et al. 2006)): Toxic symptoms occurred
- Reported concomitant effects (signs and symptoms) (714 mg/kg BW (50 g) acute oral, person one, ref Yoshida and Kuroki. 2010 (original data of Koyama et al. 2006)): Toxic symptoms occurred
- Reported concomitant effects (signs and symptoms) (714 mg/kg BW (50 g) acute oral, person ten, ref Yoshida and Kuroki. 2010 (original data of Koyama et al. 2006)): Toxic symptoms occurred
- Reported concomitant effects (signs and symptoms) (714 mg/kg BW (50 g) acute oral, person thirteen, ref Yoshida and Kuroki. 2010 (original data of Koyama et al. 2006)): Toxic symptoms occurred
- Reported concomitant effects (signs and symptoms) [1]: toxic symptoms occurred
- Reported erythrocyte AChE activity/inhibition [1]: Significantly decreased
- Reported concomitant effects (signs and symptoms) (1786 mg/kg BW (125.0 ± 35.4 g) acute oral, one male and one female, ref Inoue et al. 2008): Toxic symptoms occurred
- reported or expected adverse health outcome (single oral 0.042 mg/kg BW, 0.042 mg/kg): negative
- reported or expected adverse health outcome (single oral 0.042 mg/kg BW, listed as Fenitrothion, 0.042 mg/kg): No
- reported or expected adverse health outcome (single oral 0.06 mg/kg BW, 0.06 mg/kg): negative
- reported or expected adverse health outcome (single oral 0.06 mg/kg BW, listed as Fenitrothion, 0.06 mg/kg): No
- reported or expected adverse health outcome (single oral 0.083 mg/kg BW, 0.083 mg/kg): negative
- reported or expected adverse health outcome (single oral 0.083 mg/kg BW, listed as Fenitrothion, 0.083 mg/kg): No
- reported or expected adverse health outcome (single oral 0.09 mg/kg BW, 0.09 mg/kg): negative
- reported or expected adverse health outcome (single oral 0.09 mg/kg BW, listed as Fenitrothion, 0.09 mg/kg): No
- reported or expected adverse health outcome (single oral 0.17 mg/kg BW, 0.17 mg/kg): negative
- reported or expected adverse health outcome (single oral 0.17 mg/kg BW, listed as Fenitrothion, 0.17 mg/kg): No
- reported or expected adverse health outcome (single oral 0.18 mg/kg BW, 0.18 mg/kg): negative
- reported or expected adverse health outcome (single oral 0.18 mg/kg BW, listed as Fenitrothion, 0.18 mg/kg): No
- reported or expected adverse health outcome (single oral 0.25 mg/kg BW, 0.25 mg/kg): negative
- reported or expected adverse health outcome (single oral 0.25 mg/kg BW, listed as Fenitrothion, 0.25 mg/kg): No
- reported or expected adverse health outcome (single oral 0.33 mg/kg BW, 0.33 mg/kg): negative
- reported or expected adverse health outcome (single oral 0.33 mg/kg BW, listed as Fenitrothion, 0.33 mg/kg): No
- reported or expected adverse health outcome (single oral 0.36 mg/kg BW, 0.36 mg/kg): negative
- reported or expected adverse health outcome (single oral 0.36 mg/kg BW, listed as Fenitrothion, 0.36 mg/kg): No
- reported or expected adverse health outcome (single oral 36 mg/kg BW, 36 mg/kg): positive
- reported or expected adverse health outcome (single oral 36 mg/kg BW, listed as Fenitrothion, 36 mg/kg): Yes
- reported or expected adverse health outcome (single oral 71 mg/kg BW, 71 mg/kg): positive
- reported or expected adverse health outcome (single oral 71 mg/kg BW, listed as Fenitrothion, 71 mg/kg): Yes
- reported or expected adverse health outcome (single oral 143 mg/kg BW, 143 mg/kg): positive
